Measured values: patent US20130267516A1, “SUBSTITUTED CYCLOPENTYL-AZINES AS CASR-ACTIVE COMPOUNDS” (LEO PHARMA A/S, priority 2010, published 2013)

What was measured:
human CaSR = molecular target: T1, human CaSR (Homo sapiens, UniProt P41180); assay: Functional whole cell assay (modulation of human CaSR), IP1 accumulation in CHO-K1 cells; assay type: cell-based; settings: CHO-K1 cells stably expressing human CaSR, final Ca2+ 1.9 mM, IP1 readout; concentration giving 50% of maximum agonistic response
T1 construct: The ORF coding for the human CaSR (genebank: NM_000388)
T1 sequence (P41180 20-1078): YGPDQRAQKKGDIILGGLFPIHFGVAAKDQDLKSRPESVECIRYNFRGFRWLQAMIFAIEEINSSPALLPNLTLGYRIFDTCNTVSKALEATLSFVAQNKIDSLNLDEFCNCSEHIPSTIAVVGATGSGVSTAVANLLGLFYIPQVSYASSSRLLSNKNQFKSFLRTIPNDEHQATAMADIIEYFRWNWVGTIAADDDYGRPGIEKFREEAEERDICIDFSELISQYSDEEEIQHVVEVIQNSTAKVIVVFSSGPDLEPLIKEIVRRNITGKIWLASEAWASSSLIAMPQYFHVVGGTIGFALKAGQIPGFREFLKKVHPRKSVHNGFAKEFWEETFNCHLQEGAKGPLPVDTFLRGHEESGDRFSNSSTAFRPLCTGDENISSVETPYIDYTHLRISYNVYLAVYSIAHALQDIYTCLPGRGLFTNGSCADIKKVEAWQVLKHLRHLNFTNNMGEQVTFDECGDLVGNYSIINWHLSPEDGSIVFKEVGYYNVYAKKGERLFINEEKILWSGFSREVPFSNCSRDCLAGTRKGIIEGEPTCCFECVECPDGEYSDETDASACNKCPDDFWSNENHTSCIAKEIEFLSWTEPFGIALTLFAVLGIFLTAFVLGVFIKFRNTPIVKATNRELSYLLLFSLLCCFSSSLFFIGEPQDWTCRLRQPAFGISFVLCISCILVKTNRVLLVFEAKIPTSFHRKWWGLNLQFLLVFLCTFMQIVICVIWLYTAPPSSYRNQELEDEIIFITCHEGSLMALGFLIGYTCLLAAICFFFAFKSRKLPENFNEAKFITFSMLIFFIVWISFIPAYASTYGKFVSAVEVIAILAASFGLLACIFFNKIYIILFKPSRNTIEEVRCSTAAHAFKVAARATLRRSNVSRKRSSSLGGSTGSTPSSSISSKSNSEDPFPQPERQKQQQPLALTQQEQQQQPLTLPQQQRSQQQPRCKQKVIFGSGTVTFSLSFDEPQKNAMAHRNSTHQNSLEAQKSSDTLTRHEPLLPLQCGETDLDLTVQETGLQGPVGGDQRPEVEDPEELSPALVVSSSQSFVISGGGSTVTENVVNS
Source text: The assay investigates a compound's functional ability to act as a biological positive modulator on the human CaSR. Activation of the receptor expressed on CHO-K1 cells is detected through the G alpha q pathway, the activation of phospholipase C and the accumulation of intracellular inositol phosphate (IP) as described earlier [Sandrine Ferry, Bruno Chatel, Robert H. Dodd, Christine Lair, Danielle Gully, Jean-Pierre Maffrand, and Martial Ruat. Effects of Divalent Cations and of a Calcimimetic on Adrenocorticotropic Hormone Release in Pituitary Tumor Cells. Biochemical and biophysical research Communications 238, 866-873 (1997)]. The human CaSR is stably expressed on a CHO-K1 cell clone, stimulated with a basal level of calcium and challenged with the tested compound. The level of IP1 is determined using the IP-One Terbium htrf kit (Cisbio, France). CHO-K1 cells not transfected with the CaSR fail to elicit an IP1 response upon calcium and/or compound stimulation.
The ORF coding for the human CaSR (genebank: NM_000388) was acquired from Invitrogen Corp, USA and subsequently cloned into the mammalian expression vector pCDA3.1.
CHO-K1 cells were transfected using Lipofectamine according to manufacturer's protocol (400.000 cells/well were seeded in a 6-well plate and transfected after 24 hours using 2 μg DNA and 5 μl lipofectamine). After another 24 hours the cells were detached, seeded and subjected to 1 mg/ml of G-418. Following 7 days growth single clones were picked, the CaSR expression evaluated using the 5C10 antibody against CaSR, the clones with the highest expression were selected and tested for functional response. The preferred clone was cultured according to standard procedures described in ATCC (American Type Culture Collection) protocols for CHO-K1 with the addition of 500 μg/ml G-418.
On the assay day, cells were thawed, harvested and resuspended to 4*10^6 cells/ml in stimulation buffer (containing: Hepes 10 mM, MgCl2 0.5 mM, KCl 4.2 mM, NaCl 146 mM, glucose 5.5 mM, LiCl 50 mM, BSA 0.5% at pH 7.4). Ten μl cell solution was pipetted into wells of a white 384-well plate (Perkin Elmer Optiplate) containing 2 μl compound diluted in assay buffer (containing: Hepes 10 mM, MgCl2 0.5 mM, KCl 4.2 mM, NaCl 146 mM, glucose 5.5 mM, LiCl 50 mM, CaCl2 11.4 mM at pH 7.4), resulting in a final Ca^2+ concentration of 1.9 mM. After compound stimulation for 1 hour at 37° C. and 15 min at room temperature, 10 ul of IP-One assay detection reagent (prepared as described by the IP-One assay kit manufacturer) was added and the plate was incubated for another 1 hour at room temperature. Finally the plate was read using a Perkin Elmer EnVision, according to the protocol supplied by the IP-One assay kit manufacturer. The FRET ratio was calculated by dividing the 665 nm emission signal with that of the 615 nm.
The molar concentration of a compound that produces 50% of the maximum agonistic response (the […] value) is calculated according to the equation “General sigmoidal curve with Hill slope, a to d” (Equation 1). This model describes a sigmoidal curve with an adjustable baseline. The equation can be used to fit curves where response is either increasing or decreasing with respect to the independent variable, X.
y=(a−d)/(1+(x/c)̂b)+d Equation 1.
x=concentration of tested compound y=response (%) a=min response as compound concentration approaches 0 d=max response as concentration of tested compound is increasing c=IC50 for the curve b=Hill coefficient or curve slope

[1] = Clearance in human liver microsomes; assay type: in vitro ADME; settings: hepatic extraction ratio; 0.5 μM compound, 0.5 mg/mL microsomes, 1 mM NADPH, 30 min
Procedure: Test compound concentration is 0.5 μM, microsome concentration is 0.5 mg/mL and NADPH concentration is 1 mM in the incubation. The described method is performed by the liquid handling system Tecan RSP and is based on a 96-well format.
Control incubations with test compound without NADPH and test compound without microsomes are conducted to investigate non-CYP mediated metabolism and stability in phosphate buffer at 37° C., respectively.
The human liver microsomal suspension in phosphate buffer is mixed with NADPH. The mixture is pre-heated (7 min) to 37° C. Test compound is added, and the mixture is incubated for 30 minutes. Incubations are run in duplicate. Samples are withdrawn at predetermined stop times and mixed with methanol containing internal standard (IS) to terminate all enzyme activity and precipitate proteins. A control without NADPH (to detect problems such as nonspecific protein binding, heat instability or non-CYP mediated metabolism) and a control without microsomes (for assessing compound stability in the absence of any active enzymes) are tested.
The percentage of organic solvent in the incubations is less than 1%. Careful inspections of reagents are performed prior to the start of any experiment to ensure all reagents are in solution.
The 96-well plates are centrifuged. Test compound depletion, using a compound specific LC/MS/MS method, is determined.
The logarithm of the peak area ratios of test compound to internal standard (IS) versus incubation time is plotted in a graph.
The rate constant (k) (min^−1) of test compound depletion is calculated from the linear part of the curve and the half-time (t1/2) in minutes can be calculated from the rate constant (Eq. 2).
Intrinsic clearance (Clint) (mL/min/mg protein) is calculated from: […]
where c is the microsomal protein concentration in mg/mL.
Intrinsic clearance is the maximum ability of the liver to extract a drug in the absence of blood flow restrictions.
Conversion to apparent clearance (Clapp) (mL/min/kg) is done by Eq. 4:
Clapp=Clint×a×b/d (Eq. 4)
where a, b and d are the scaling factors for normalizing Clint to human body weight.
The following human scaling factors are used:
a: 45 (microsomal protein/liver weight (mg/g)) b: 1500 (liver weight (g)) d: 70 (body weight (kg))
Hepatic clearance (Clh) (mL/min/kg) based on the well-stirred model is described as followed:
Clh=(Clapp·Q)/(Clapp+Q) (Eq. 5)
where Q is the liver blood flow in mL/min/kg (20 in humans).
Dividing hepatic clearance with liver blood flow, the hepatic extraction ratio (%) can be calculated:
Apparent clearance below approximately 10 mL/min/kg human body weight (corresponding to extraction ratio of approx. 33%) is considered as low clearance (high metabolic stability). Apparent intrinsic clearance above approximately 60 mL/min/kg human body weight (corresponding to extraction ratio of approx. 75%) is considered as high clearance (low metabolic stability).

Compound | EC50 (human CaSR) [nM] | Clearance (% Eh) in human liver microsomes [1]
C[C@@H](N[C@H]1CC[C@@H](c2ccc(NCCS(N)(=O)=O)nc2)C1)c1cccc2c1OCO2 [Compound 114, 2-[[5-[(1R,3S)-3-[[(1R)-1-(1,3-Benzodioxol-4-yl)ethyl]amino]cyclopentyl]-2-pyridyl]amino]ethanesulfonamide] | 200 to 1000 | A (A: Eh < 33%)
COc1cc([C@@H](C)N[C@H]2CC[C@@H](c3cnc(NCCNS(C)(=O)=O)nc3)C2)ccc1F [Compound 123, N-[2-[[5-[(1R,3S)-3-[[(1R)-1-(4-Fluoro-3-methoxy-phenyl)ethyl]amino]cyclopentyl]pyrimidin-2-yl]amino]ethyl]methanesulfonamide] | 200 to 1000 | A (A: Eh < 33%)
CCOc1cccc([C@@H](C)N[C@H]2CC[C@@H](c3ccc(N4CCNC(=O)C4)nc3)C2)c1 [Compound 117, 4-[5-[(1R,3S)-3-[[(1R)-1-(3-Ethoxyphenyl)ethyl]amino]cyclopentyl]-2-pyridyl]piperazin-2-one] | 200 to 1000 | A (A: Eh < 33%)
C[C@@H](N[C@H]1CC[C@@H](c2ccc(NCCS(N)(=O)=O)nc2)C1)c1cccc(Cl)c1 [Compound 121, 2-[[5-[(1R,3S)-3-[[(1R)-1-(3-Chlorophenyl)ethyl]amino]cyclopentyl]-2-pyridyl]amino]ethanesulfonamide] | 200 to 1000 | A (A: Eh < 33%)
